Among the data in patent US8518947B2, “(Heterocycle/tetrahydropyridine)-(piperazinyl)-1-alcanone and (heterocycle/dihydropyrrolidine)-(piperazinyl)-1-alcanone derivatives, and use thereof as p75 inhibitors” (Sanofi, priority 2009, dated 2013) are melting point values, retold here.

Where a name gives a salt, the structure may show the parent alone.

`COC(=O)c1ccc(N2C3CCC2CN(CC(=O)N2CC=C(c4cccc5ccsc45)CC2)C3)nc1` had a melting point of 153 to 154 °C. As for `O=C(CN1CCN(c2ccc(C(F)(F)F)cn2)C(=O)C1)N1CC=C(c2cccc3ccoc23)CC1` [Compound 32, 4-[2-(4-benzofuran-7-yl-3,6-dihydro-2H-pyridin-1-yl)-2-oxoethyl]-1-(5-trifluoromethylpyridin-2-yl)piperazin-2-one], the figure is 151 to 152 °C; as for `O=C(O)c1ccc(N2C3CCC2CN(CC(=O)N2CC=C(c4nccc5sccc45)CC2)C3)nc1`, 159 to 160 °C; as for `O=C(CN1CCN(c2ccc3ccccc3n2)CC1)N1CC=C(c2c[nH]c3ccccc23)CC1` [Compound 98, 1-[4-(1H-indol-3-yl)-3,6-dihydro-2H-pyridin-1-yl]-2-(4-quinolin-2-ylpiperazin-1-yl)ethanone], 213 to 215 °C. Turning to `Cn1nnnc1-c1ccc(N2C3CCC2CN(CC(=O)N2CC=C(c4cccc5ccoc45)CC2)C3)nc1`, the melting point lay within 178 to 180 °C. Compound `O=C(CN1CCN(c2ccc(C(F)(F)F)cn2)C(=O)C1)N1CC=C(c2ccc3sccc3c2)CC1` [Compound 43, 4-[2-(4-benzo[b]thiophen-5-yl-3,6-dihydro-2H-pyridin-1-yl)-2-oxoethyl]-1-(5-trifluoromethylpyridin-2-yl)piperazin-2-one] displayed a melting point of 169 to 170 °C.

For the compound `O=C(CN1CCN(c2ccc(C(F)(F)F)cn2)C(=O)C1)N1CC=C(c2c[nH]c3ccccc23)CC1` [Compound 30, 4-{2-[4-(1H-indol-3-yl)-3,6-dihydro-2H-pyridin-1-yl]-2-oxoethyl}-1-(5-trifluoromethylpyridin-2-yl)piperazin-2-one], the melting point is 230 to 233 °C. With `CCCc1cc2cc(C3=CCN(C(=O)CN4[C@H](C)CN(c5ccc(C(F)(F)F)cn5)C[C@@H]4C)CC3)ccc2s1` [Compound 68, 2-[(2S,6R)-2,6-dimethyl-4-(5-trifluoromethylpyridin-2-yl)piperazin-1-yl]-1-[4-(2-propylbenzo[b]thiophen-5-yl)-3,6-dihydro-2H-pyridin-1-yl]ethanone] the figure was 157 to 159 °C; with `Cc1cc2cc(C3=CCN(C(=O)CN4[C@H](C)CN(c5ccc(C(F)(F)F)nc5)C[C@@H]4C)CC3)ccc2s1` [Compound 39, 2-[(2S,6R)-2,6-dimethyl-4-(6-trifluoromethylpyridin-3-yl)piperazin-1-yl]-1-[4-(2-methylbenzo[b]thiophen-5-yl)-3,6-dihydro-2H-pyridin-1-yl]ethanone], 217 to 218 °C; with `O=C(CN1CCN(c2ccc(C(F)(F)F)cn2)C(=O)C1)N1CC=C(c2cccc3ccsc23)CC1` [Compound 31, 4-[2-(4-benzo[b]thiophen-7-yl-3,6-dihydro-2H-pyridin-1-yl)-2-oxoethyl]-1-(5-trifluoromethylpyridin-2-yl)piperazin-2-one], 143 to 146 °C. As for `O=C(CN1CC2CCC(C1)N2c1ncc(F)cn1)N1CC=C(c2coc3ccccc23)CC1`, the figure is 207 to 210 °C. `O=C(CN1CCN(c2cccc(Br)n2)CC1)N1CC=C(c2cccc3ccsc23)CC1` [Compound 113, 1-(4-benzo[b]thiophen-7-yl-3,6-dihydro-2H-pyridin-1-yl)-2-[4-(6-bromopyridin-2-yl)piperazin-1-yl]ethanone]: the melting point lay in the range of 80 to 81 °C. With `Cc1cc2cc(C3=CCN(C(=O)CN4CC5CCC(C4)N5c4ccc(C(=O)OC5CCC5)cn4)CC3)ccc2s1` the figure was 153 to 154 °C; with `O=C(CN1CC2CCC(C1)N2c1ncc(F)cn1)N1CC=C(c2cccc3ccsc23)CC1`, 112 to 113 °C. With `C[C@@H]1CN(c2ccc(C(F)(F)F)nc2)C[C@H](C)N1CC(=O)N1CC=C(c2ccc3c(c2)OCCO3)CC1` [Compound 45, 1-[4-(2,3-dihydrobenzo[1,4]dioxin-6-yl)-3,6-dihydro-2H-pyridin-1-yl]-2-[(2S,6R)-2,6-dimethyl-4-(6-trifluoromethylpyridin-3-yl)piperazin-1-yl]ethanone] the figure was 200 to 201 °C; with `O=C(CN1CCN(c2ccc(C(F)(F)F)cn2)C(=O)C1)N1CC=C(c2ccc3c(c2)OCCO3)CC1` [Compound 49, 4-{2-[4-(2,3-dihydrobenzo[1,4]dioxin-6-yl)-3,6-dihydro-2H-pyridin-1-yl]-2-oxoethyl}-1-(5-trifluoromethylpyridin-2-yl)piperazin-2-one], 161 to 162 °C. Consider `O=C(CN1CCN(c2ccc(C(F)(F)F)cn2)CC1)N1CC=C(c2cccc3ccoc23)CC1` [Compound 33, 1-(4-benzofuran-7-yl-3,6-dihydro-2H-pyridin-1-yl)-2-[4-(5-trifluoromethylpyridin-2-yl)piperazin-1-yl]ethanone], for which the melting point was 155 to 156 °C.

The compound `C[C@@H]1CN(c2cncnc2)C[C@H](C)N1CC(=O)N1CC=C(c2ccc3sccc3c2)CC1` [Compound 41, 1-(4-benzo[b]thiophen-5-yl-3,6-dihydro-2H-pyridin-1-yl)-2-((2S,6R)-2,6-dimethyl-4-pyrimidin-5-ylpiperazin-1-yl)ethanone] yielded a melting point of 218 to 220 °C. For `COC(=O)c1cc2cccc(C3=CCN(C(=O)CN4[C@H](C)CN(c5ccc(C(F)(F)F)cn5)C[C@@H]4C)CC3)c2s1` (as salt: HCl) [Compound 66, Methyl 7-(1-{2-[(2S,6R)-2,6-dimethyl-4-(5-trifluoromethylpyridin-2-yl)piperazin-1-yl]acetyl}-1,2,3,6-tetrahydropyridin-4-yl)benzo[b]thiophene-2-carboxylate], the melting point was 138 to 141 °C. Regarding `C[C@@H]1CN(c2cncnc2)C[C@H](C)N1CC(=O)N1CC=C(c2cccc3ccsc23)CC1` [Compound 55, 1-(4-benzo[b]thiophen-7-yl-3,6-dihydro-2H-pyridin-1-yl)-2-((2S,6R)-2,6-dimethyl-4-pyrimidin-5-ylpiperazin-1-yl)ethanone], the melting point was in the range of 195 to 196 °C.

`COC(=O)c1ccc(N2C3CCC2CN(CC(=O)N2CC=C(c4cccc5ccoc45)C2)C3)nc1`: the melting point was in the range of 169 to 170 °C. As for `C[C@@H]1CN(c2ccc3ccccc3n2)C[C@H](C)N1CC(=O)N1CC=C(c2cccc3ccsc23)CC1` (as salt: HCl) [Compound 19, 1-(4-benzo[b]thiophen-7-yl-3,6-dihydro-2H-pyridin-1-yl)-2-((2S,6R)-2,6-dimethyl-4-quinolin-2-ylpiperazin-1-yl)ethanone], the figure is 192 to 193 °C; as for `C[C@@H]1CN(c2ncc(C(F)(F)F)cc2Cl)C[C@H](C)N1CC(=O)N1CC=C(c2cccc3ccoc23)CC1` [Compound 92, 1-(4-benzofuran-7-yl-3,6-dihydro-2H-pyridin-1-yl)-2-[(2S,6R)-4-(3-chloro-5-trifluoromethylpyridin-2-yl)-2,6-dimethylpiperazin-1-yl]ethanone], 130 to 131 °C; as for `O=C(CN1CCCN(c2cccnc2)CC1)N1CC=C(c2cccc3ccoc23)CC1` (as salt: oxalate) [Compound 78, 1-(4-benzofuran-7-yl-3,6-dihydro-2H-pyridin-1-yl)-2-(4-pyridin-3-yl-[1,4]diazepan-1-yl)ethanone], 100 to 101 °C. As for `O=C(CN1CCN(c2cccc(Cl)n2)CC1)N1CC=C(c2c[nH]c3ccccc23)CC1` [Compound 108, 2-[4-(6-chloropyridin-2-yl)piperazin-1-yl]-1-[4-(1H-indol-3-yl)-3,6-dihydro-2H-pyridin-1-yl]ethanone], the melting point was 202 to 204 °C.

Compound `Cc1cc2cc(C3=CCN(C(=O)CN4[C@H](C)CN(c5ncc(F)cn5)C[C@@H]4C)CC3)ccc2s1` [Compound 38, 2-[(2S,6R)-4-(5-fluoropyrimidin-2-yl)-2,6-dimethylpiperazin-1-yl]-1-[4-(2-methylbenzo[b]thiophen-5-yl)-3,6-dihydro-2H-pyridin-1-yl]ethanone] returned a melting point of 205 to 206 °C.

`COC(=O)c1ccc(N2C3CCC2CN(CC(=O)N2CC=C(c4cccc5ccoc45)CC2)C3)nc1` registered a melting point of 158 to 159 °C.

As for `C[C@@H]1CN(c2ccc(Cl)cn2)C[C@H](C)N1CC(=O)N1CC=C(c2cccc3ccsc23)CC1` [Compound 101, 1-(4-benzo[b]thiophen-7-yl-3,6-dihydro-2H-pyridin-1-yl)-2-[(2S,6R)-4-(5-chloropyridin-2-yl)-2,6-dimethylpiperazin-1-yl]ethanone], the melting point was in the range of 157 to 158 °C.

For the compound `C[C@@H]1CN(c2cncnc2)C[C@H](C)N1CC(=O)N1CC=C(c2cccc3ccoc23)CC1` [Compound 35, 1-(4-benzofuran-7-yl-3,6-dihydro-2H-pyridin-1-yl)-2-((2S,6R)-2,6-dimethyl-4-pyrimidin-5-ylpiperazin-1-yl)ethanone], the melting point fell in the range of 142 to 143 °C. As for `O=C(CN1CCN(c2ccc(C(F)(F)F)cn2)CC1)N1CC=C(c2cccc3ccsc23)CC1` [Compound 50, 1-(4-benzo[b]thiophen-7-yl-3,6-dihydro-2H-pyridin-1-yl)-2-[4-(5-trifluoromethylpyridin-2-yl)piperazin-1-yl]ethanone], the figure is 120 to 121 °C; as for `COC(=O)c1ccc(N2C[C@@H](C)N(CC(=O)N3CC=C(c4ccc5sc(C)cc5c4)CC3)[C@@H](C)C2)nc1` [Compound 61, Methyl 6-((3S,5R)-3,5-dimethyl-4-{2-[4-(2-methylbenzo[b]thiophen-5-yl)-3,6-dihydro-2H-pyridin-1-yl]-2-oxoethyl}piperazin-1-yl)nicotinate], 148 to 150 °C. As for `O=C(CN1CCN(c2ccnc3cc(Cl)ccc23)CC1)N1CC=C(c2cccc3ccoc23)CC1` (as salt: oxalate) [Compound 99, 1-(4-benzofuran-7-yl-3,6-dihydro-2H-pyridin-1-yl)-2-[4-(7-chloroquinolin-4-yl)piperazin-1-yl]ethanone], the figure is 99 to 100 °C; as for `O=C(CN1CCN(c2ccc(C(F)(F)F)cn2)CC1)N1CC=C(c2ccc3sccc3c2)CC1` [Compound 46, 1-(4-benzo[b]thiophen-5-yl-3,6-dihydro-2H-pyridin-1-yl)-2-[4-(5-trifluoromethylpyridin-2-yl)piperazin-1-yl)ethanone], 170 to 171 °C. As for `O=C(O)c1ccc(N2C3CCC2CN(CC(=O)N2CC=C(c4cccc5ccoc45)C2)C3)nc1`, the figure is 188 to 189 °C.

The melting point is the temperature of the solid-liquid transition.
